Assay results from patent US20210369677A1, “SMALL MOLECULE ACTIVATORS OF POLYCYSTIN-2 (PKD2) AND USES THEREOF” (Northwestern University, priority 2020, published 2021).

Key:
polycystin-2 channels [1] = experiment: Inside-out cilia patch of pIMCD cells, calcium opening of polycystin-2 channels; assay type: cell-based, mouse; conditions: Pkd2+/del-Z mice; read-out: EC50, potency of calcium opening polycystin-2 channels
Experimental: (§1) Cell culture of primary inner medullary collecting duct cells and immortalized cell lines. Primary inner medullary collecting ducts cells (pIMCD) were isolated from WT or Pkd2^del-Z/del-Z mice co-expressing the ARL13B-EGFP cilia reporter using the previously described method (Liu et al., 2018). Briefly, inner medullae were removed from the kidney and disassociated using a Dulbecco's phosphate buffered solution (DPBS) containing 2 mg/ml collagenase A and 1 mg/ml hyaluronidase. After mechanical disassociation on ice, medullary cells were cultured in Dulbecco's modified essential medium (DMEM) supplemented with 10% fetal bovine serum (FBS) and 100 units/ml penicillin/100 μg/ml streptomycin. Cilia were patched from cells within 6 days after isolation and within one passage. HEK PKD2^Null cell lines were generated using the CRISPR/Cas9 gene editing kit available from Addgene and authenticated using PCR analysis, as previously described (Liu et al., 2018). […]
(§2) Electrophysiology. The electrophysiologist was blinded by a third party in the laboratory, where test groups were assigned a letter to conceal the genetic identity of the cells being evaluated. […] Ciliary ion currents were recorded using borosilicate glass electrodes polished to resistances of 14-23 MΩ using the cilium patch method previously described (Vien et al., 2020). Single channel currents measured in the inside-out configuration were recorded in symmetrical sodium concentrations. […] Calcium was buffered with 5 EGTA (ethylene glycol-bis(o-aminoethyl ether)-N,N,N′,N′-tetraacetic acid), 5 Na4-BAPTA (Glycine, N, N′-[1,2-ethanediylbis(oxy-2,1-phenylene)]bis[N-(carboxymethyl)]-,tetrasodium) and 0.5 EDTA […]; free calcium was calculated using Maxchilator and titration of 1 M CaCl2) solution (Bers et al., 2010); pH was adjusted to 7.3 using NaOH. […] Whole cell currents used to measure CDD were also recorded in symmetrical sodium concentration, placing the internal recording solution in the pipette electrode and the external recording solution in the bath. […]

polycystin-2 channels [2] = target: T1, polycystin-2 channels (Mus musculus, UniProt O35245); experiment: as above; assay type: cell-based; conditions: Pkd2+/+ mice; read-out: EC50, potency of calcium opening polycystin-2 channels
T1 construct: the mouse channel orthologue under endogenous expression in the kidney collecting duct; endogenous in cells; host or cells: primary inner medullary collecting duct (pIMCD) cells of ARL13B-EGFP mice
T1 sequence (O35245 1-966): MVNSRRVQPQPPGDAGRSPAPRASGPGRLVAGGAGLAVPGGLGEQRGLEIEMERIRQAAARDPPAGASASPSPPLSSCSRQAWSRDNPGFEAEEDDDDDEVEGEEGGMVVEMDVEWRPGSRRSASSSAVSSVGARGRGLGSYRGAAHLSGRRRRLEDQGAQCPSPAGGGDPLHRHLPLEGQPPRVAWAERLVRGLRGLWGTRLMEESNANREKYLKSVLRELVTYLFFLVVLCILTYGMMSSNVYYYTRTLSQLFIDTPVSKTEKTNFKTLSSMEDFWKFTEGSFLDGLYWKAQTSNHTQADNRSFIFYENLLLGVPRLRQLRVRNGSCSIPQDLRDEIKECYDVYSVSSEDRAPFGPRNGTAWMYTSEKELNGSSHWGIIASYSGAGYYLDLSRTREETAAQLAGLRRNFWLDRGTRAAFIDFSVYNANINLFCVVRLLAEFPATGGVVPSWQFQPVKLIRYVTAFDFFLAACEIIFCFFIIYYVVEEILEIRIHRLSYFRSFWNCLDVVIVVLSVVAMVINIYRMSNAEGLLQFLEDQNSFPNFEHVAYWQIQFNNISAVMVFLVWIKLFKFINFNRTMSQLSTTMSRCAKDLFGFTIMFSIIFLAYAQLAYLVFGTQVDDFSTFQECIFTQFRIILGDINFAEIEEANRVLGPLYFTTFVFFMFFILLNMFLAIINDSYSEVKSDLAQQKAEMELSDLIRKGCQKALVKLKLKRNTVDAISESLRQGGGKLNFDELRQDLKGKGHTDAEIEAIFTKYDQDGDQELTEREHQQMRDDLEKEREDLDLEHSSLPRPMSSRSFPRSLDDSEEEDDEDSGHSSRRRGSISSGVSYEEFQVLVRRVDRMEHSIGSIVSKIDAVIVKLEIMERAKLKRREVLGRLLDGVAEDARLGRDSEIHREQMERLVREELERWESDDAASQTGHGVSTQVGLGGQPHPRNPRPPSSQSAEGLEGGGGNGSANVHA
Experimental: as §1, §2

## [Ca+2] [Ca^2+, calcium]
polycystin-2 channels [1]
  EC50: 1400 ± 400 nM
polycystin-2 channels [2]
  EC50: 1200 ± 400 nM
